Test results taken from patent US20180235942A1 (priority 2015, published 2018).
Where two headings read alike, the source gives them in different places.

Legend:
[1] = system: healthy elderly male and female subjects; parameters: species or system human; conditions: in vivo, po
[2] = system: patients with a history of drug abuse; conditions: cited from earlier work
[3] = system: normal healthy adult subjects; assay: Intravenous and oral tolerability and safety in healthy adult subjects; format: in vivo, human
Description: There was a washout of 4 days between each treatment period.
The study included healthy, male and female subjects between 18 and 45 years of age within 30% of ideal weight. The subjects in Part 1 of the study could be of either gender, but within Part 2 of the study there had to be at least 4 subjects of each gender.

insomnia = conditions: three-month efficacy study; cited from earlier work
[4] = system: healthy, male and female subjects; assay: Driving performance study, real driving on the road after evening or middle-of-the-night dosing; format: in vivo, human; conditions: for effect on driving: gaboxadol 15 mg; for effect on memory test, body sway, DSST or critical tracking: in vivo
Description: The study participants included healthy, male and female subjects between 21 and 45 years of age, with a valid drivers license for at least 3 years.
Following a cognitive and psychomotor test battery, the driving test started at 9 am and lasted for one hour.

clinical = conditions: both, human, in vivo
[5] = system: healthy adults subjected to a 5-hour sleep restriction; assay: Daytime performance after 5-hour sleep restriction (MSLT, SWS, KSS); format: in vivo, human
Method: The study included a 2-night single-blind placebo run-in period, a 4-night double-blind treatment period during which sleep was restricted to 5 hours and a 2-night single-blind placebo run-out period. The study included healthy male and female volunteers 18 to <55 years of age.
The primary endpoints included observations based on the Multiple Sleep Latency Test (MSLT) and Slow Wave Sleep (SWS) assessment.

[6] = middle-of-the-night administration, zolpidem 10 mg

CCN(CC)CCN1C(=O)CN=C(c2ccccc2F)c2cc(Cl)ccc21 [Flurazepam]
residual effect on Choice Reaction Time and Critical Flicker Fusion [1]: showed significant effect

Oc1noc2c1CCNC2 [gaboxadol, 4,5,6,7-tetrahydroisoxazolo [5,4-c]pyridine-3-ol]
psychiatric adverse events [2]: steep increase in psychiatric adverse events | most common clinical adverse experiences ([3]; both parts of the study): somnolence and dizziness | serious adverse experiences ([3]; both parts of the study): no serious adverse experiences reported | tolerability ([3]; single intravenous doses of 5 and 10 mg, single oral doses from 2.5 to 20 mg): generally well tolerated | effects in sleep onset and sleep maintenance (insomnia): failed to show significant effects | tolerability ([4]; evening and middle-of-the-night dose): well tolerated | effect on driving compared with 0.05% blood alcohol concentration ([4]; evening dose, 15 mg): less than the effect observed at a 0.05% blood alcohol concentration | effect on driving ([4]; evening dose, zopiclone 7.5 mg): statistically significant effect | most frequent adverse events ([4]; evening treatment): headache and somnolence | effect on memory test, body sway, DSST or critical tracking [4]: no effect | effect on driving [4, 6]: clinically relevant impairing effect | most frequent adverse events ([4]; middle-of-the-night treatment): dizziness, nausea and somnolence | residual effect on Choice Reaction Time and Critical Flicker Fusion [1]: did not show residual effect | residual effects on other measurements (MSLT, DSST, Tracking, Memory tests, Body Sway, Leeds Sleep Evaluation Questionnaire) [1]: did not show any signs of residual effects | bioavailability (clinical): 92% | Renal clearance (CLR) (human, in vivo): greater than glomerular filtration rate | steady-state volume of distribution (Vss) (human, in vivo, iv): moderate | systemic clearance (CL) (human, in vivo, iv): moderate | AUC0-inf and Cmax versus dose (oral administration): increased with increasing dose | AUC0-inf and Cmax versus dose (single intravenous doses): increased with increasing dose | daytime sleepiness versus placebo (MSLT) ([5]; 15 mg, Sleep Restriction period, p=0.047, 1 sided): significantly less daytime sleepiness | MSLT, longer than placebo on average ([5]; 15 mg, last two Sleep Restriction days): 2.01 min | slow wave sleep (SWS) versus placebo ([5]; Sleep Restriction period, p<0.001, 1 sided): significantly more SWS | biophysiological measures of stress (heart rate variability, cortisol levels, catecholamine levels, body temperature) versus placebo ([5]; in vivo): no differences | daytime performance, neurocognitive battery effect sizes ([5]; in vivo): no strong evidence that gaboxadol improves daytime performance | Karolinska Sleepiness Score (KSS), less than placebo on average ([5]; last two Sleep Restriction days, p=0.058, 1 sided, LDA model): 0.68 | SWS, longer than placebo on average ([5]; last two Sleep Restriction nights): 20.53 min

Cc1ccc(-c2nc3ccc(C)cn3c2CC(=O)N(C)C)cc1 [zolpidem]
effect on driving [4, 6]: numerically greater effect

CN1CCN(C(=O)OC2c3nccnc3C(=O)N2c2ccc(Cl)cn2)CC1 (stereo not shown) [zopiclone]
effect on driving ([4]; evening dose, zopiclone 7.5 mg): numerically greater effect | effect on memory test, body sway, DSST or critical tracking [4]: had effect on several of these tests
